Drawing on patent US9981975B2, “Pyrrolotriazine compounds as tam inhibitors” (Incyte Corporation, priority 2016, dated 2018), this text covers IC50 for 9 compounds.

Molecules are shown by their SMILES.

Common to all, as to assay type: biochemical
One assay has as its target c-Mer (Homo sapiens (Human), UniProt Q12866). In words: TAM Enzymatic Assay (HTRF), Mer. Particulars: 60 min, room temperature. The protocol: The kinase assay buffer contained 50 mM HEPES, pH7.5, 10 mM MgCl2, 1 mM EGTA, 0.01% NP-40 and 2 mM DTT. 0.1 ul test compounds dissolved in DMSO were transferred from compound plates to white 384-well assay plates (Greiner […] plates). […] 4 ul enzyme solution (or assay buffer for the enzyme blank) was added to the appropriate wells in each plate, and then 4 ul/well substrate solution was added to initiate the reaction. The plate was protected from light and incubated at room temperature for 60 min. […] The plate was incubated for 1 h at room temperature, and HTRF (homogenous time resolved fluorescence) signal was measured on a PHERAstar FS plate reader (BMG labtech). Percentage of inhibition was calculated for each concentration and IC50 value was generated from curve fitting with GraphPad Prism software.
A general note: Time-resolved FRET reads energy transfer from a long-lived donor to a nearby acceptor.

The next assay has as its target Tyro3 (Homo sapiens (Human), UniProt Q06418). In words: TAM Enzymatic Assay (HTRF), Tyro3. The following applies: Tyro3, 60 min, room temperature. The method, boiled down:
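Reactions ran 60 min at room temperature, protected from light, started by substrate addition to enzyme plus DMSO compound, in pH 7.5 HEPES buffer with 10 mM MgCl2, 1 mM EGTA, 0.01% NP-40, 2 mM DTT.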

The target of the next assay is phosphor-Axl (Homo sapiens (Human), UniProt P30530). The assay is described as follows: TAM Enzymatic Assay (HTRF), Axl. Particulars: recombinant autophosphorylated Axl, 60 min, room temperature.
Sequence of phosphor-Axl (P30530 26-894): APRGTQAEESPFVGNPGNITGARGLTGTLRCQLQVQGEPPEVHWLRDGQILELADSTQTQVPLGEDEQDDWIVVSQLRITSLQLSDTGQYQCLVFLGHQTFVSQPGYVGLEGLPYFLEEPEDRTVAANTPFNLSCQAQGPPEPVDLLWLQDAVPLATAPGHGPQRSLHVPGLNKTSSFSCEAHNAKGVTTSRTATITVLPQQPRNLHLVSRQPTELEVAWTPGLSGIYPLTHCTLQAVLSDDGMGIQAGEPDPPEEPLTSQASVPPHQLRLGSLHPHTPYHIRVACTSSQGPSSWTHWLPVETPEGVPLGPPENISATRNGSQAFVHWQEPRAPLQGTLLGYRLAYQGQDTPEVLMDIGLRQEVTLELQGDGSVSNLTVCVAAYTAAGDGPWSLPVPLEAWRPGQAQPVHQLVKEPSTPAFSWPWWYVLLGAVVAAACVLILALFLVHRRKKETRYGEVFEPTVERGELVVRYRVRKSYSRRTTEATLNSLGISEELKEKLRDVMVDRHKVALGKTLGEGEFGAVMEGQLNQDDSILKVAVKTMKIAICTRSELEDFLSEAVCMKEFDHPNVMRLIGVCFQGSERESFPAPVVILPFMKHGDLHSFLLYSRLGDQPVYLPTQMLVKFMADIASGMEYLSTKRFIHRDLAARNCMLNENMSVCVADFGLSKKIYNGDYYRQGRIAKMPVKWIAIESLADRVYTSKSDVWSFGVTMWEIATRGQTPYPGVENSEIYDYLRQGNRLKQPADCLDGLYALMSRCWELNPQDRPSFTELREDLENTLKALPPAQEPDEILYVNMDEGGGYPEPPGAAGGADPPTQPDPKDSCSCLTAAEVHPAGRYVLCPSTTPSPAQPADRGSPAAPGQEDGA

Sequence of c-Mer (Q12866 21-999): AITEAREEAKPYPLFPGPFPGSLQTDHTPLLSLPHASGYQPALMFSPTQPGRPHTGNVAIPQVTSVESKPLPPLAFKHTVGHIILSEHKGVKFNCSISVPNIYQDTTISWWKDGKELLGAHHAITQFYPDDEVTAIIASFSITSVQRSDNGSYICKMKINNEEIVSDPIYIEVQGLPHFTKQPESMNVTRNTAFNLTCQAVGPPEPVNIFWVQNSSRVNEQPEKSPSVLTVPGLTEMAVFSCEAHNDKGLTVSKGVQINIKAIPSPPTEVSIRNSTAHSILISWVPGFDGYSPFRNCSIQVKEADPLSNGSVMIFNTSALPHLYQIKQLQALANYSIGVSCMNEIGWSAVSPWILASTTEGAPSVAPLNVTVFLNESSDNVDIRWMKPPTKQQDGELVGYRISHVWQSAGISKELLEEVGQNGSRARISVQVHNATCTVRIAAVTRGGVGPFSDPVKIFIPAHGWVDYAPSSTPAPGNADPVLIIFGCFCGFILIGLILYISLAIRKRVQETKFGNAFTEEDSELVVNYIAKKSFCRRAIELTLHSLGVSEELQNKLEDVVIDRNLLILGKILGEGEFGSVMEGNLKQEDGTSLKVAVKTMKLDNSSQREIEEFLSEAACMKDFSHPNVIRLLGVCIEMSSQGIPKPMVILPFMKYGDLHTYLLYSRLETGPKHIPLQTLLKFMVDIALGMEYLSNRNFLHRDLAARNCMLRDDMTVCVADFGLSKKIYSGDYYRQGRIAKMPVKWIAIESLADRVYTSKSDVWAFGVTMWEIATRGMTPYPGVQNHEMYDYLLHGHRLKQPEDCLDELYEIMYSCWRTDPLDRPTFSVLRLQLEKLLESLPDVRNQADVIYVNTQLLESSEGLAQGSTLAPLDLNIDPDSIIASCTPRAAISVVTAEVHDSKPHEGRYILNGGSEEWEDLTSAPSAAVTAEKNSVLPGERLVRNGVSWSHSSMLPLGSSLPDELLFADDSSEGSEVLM
Sequence of Tyro3 (Q06418 41-890): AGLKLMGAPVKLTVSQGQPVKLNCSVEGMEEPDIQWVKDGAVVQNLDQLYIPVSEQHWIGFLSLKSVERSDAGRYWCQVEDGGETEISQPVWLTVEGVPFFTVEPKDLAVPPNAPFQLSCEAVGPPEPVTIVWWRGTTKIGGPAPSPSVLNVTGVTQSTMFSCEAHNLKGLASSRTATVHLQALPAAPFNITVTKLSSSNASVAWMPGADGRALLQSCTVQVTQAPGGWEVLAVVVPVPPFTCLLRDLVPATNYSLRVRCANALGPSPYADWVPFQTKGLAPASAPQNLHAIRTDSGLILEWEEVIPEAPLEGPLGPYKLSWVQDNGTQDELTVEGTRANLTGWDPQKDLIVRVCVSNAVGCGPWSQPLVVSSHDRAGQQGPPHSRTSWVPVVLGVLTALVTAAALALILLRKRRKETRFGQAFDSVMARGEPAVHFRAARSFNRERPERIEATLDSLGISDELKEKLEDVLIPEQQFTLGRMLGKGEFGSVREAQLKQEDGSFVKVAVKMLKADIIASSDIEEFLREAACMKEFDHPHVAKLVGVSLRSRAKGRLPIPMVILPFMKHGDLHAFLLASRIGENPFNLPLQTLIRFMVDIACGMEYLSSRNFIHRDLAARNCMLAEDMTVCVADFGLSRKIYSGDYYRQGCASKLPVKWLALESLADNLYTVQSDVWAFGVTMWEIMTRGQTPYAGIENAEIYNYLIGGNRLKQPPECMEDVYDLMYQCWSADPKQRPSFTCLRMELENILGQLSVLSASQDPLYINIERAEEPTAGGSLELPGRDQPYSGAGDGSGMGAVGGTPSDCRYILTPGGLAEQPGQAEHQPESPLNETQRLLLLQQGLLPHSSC

As usually defined, the IC50 is the concentration that gives 50% inhibition. On to `CN(C)C(=O)N1CCC(c2cc(-c3ccc(NC(=O)c4cccn(-c5ccc(F)cc5)c4=O)cc3F)c3c(N)ncnn23)CC1` [Example 47, N-[4-(4-Amino-7-{1-[(dimethylamino)carbonyl]piperidin-4-yl}pyrrolo[2,1-f][1,2,4]triazin-5-yl)-3-fluorophenyl]-1-(4-fluorophenyl)-2-oxo-1,2-dihydropyridine-3-carboxamide], for which the IC50 against c-Mer is not above 5 nM; against Tyro3 it was 10 to 100 nM; on phosphor-Axl, not above 5 nM.

Take `Nc1ncnn2c1c(-c1ccc(NC(=O)c3cccn(-c4ccc(F)cc4)c3=O)cc1F)cc2[C@H]1CC[C@@H](O)CC1` [Example 19, N-{4-[4-Amino-7-(cis-4-hydroxycyclohexyl)pyrrolo[2,1-f][1,2,4]triazin-5-yl]-3-fluorophenyl}-1-(4-fluorophenyl)-2-oxo-1,2-dihydropyridine-3-carboxamide]: the IC50 on c-Mer, on Tyro3 and on phosphor-Axl was not above 5 nM throughout.

For the compound `CC(C)C(=O)N1CCC(c2cc(-c3ccc(NC(=O)c4cn(C(C)C)c(=O)n(-c5cnn(C)c5)c4=O)cc3)c3c(N)ncnn23)CC1` [Example 87, N-(4-(4-Amino-7-(1-isobutyrylpiperidin-4-yl)pyrrolo[2,1-f][1,2,4]triazin-5-yl)phenyl)-1-isopropyl-3-(1-methyl-1H-pyrazol-4-yl)-2,4-dioxo-1,2,3,4-tetrahydropyrimidine-5-carboxamide], the IC50 was not above 5 nM at c-Mer, more than 100 nM on Tyro3 and not above 5 nM on phosphor-Axl.

Turning to `CS(=O)(=O)N1CCC(c2cc(-c3ccc(NC(=O)c4cccn(-c5ccc(F)cc5)c4=O)cc3F)c3c(N)ncnn23)CC1` [Example 43], the IC50 on c-Mer is not above 5 nM; against Tyro3, 10 to 100 nM; at phosphor-Axl it was not above 5 nM.

Take `Cc1c(-c2ccccn2)c(=O)c(C(=O)Nc2ccc(-c3cc(C4CCN(C(=O)C(C)C)CC4)n4ncnc(N)c34)cc2)cn1C1CC1` [Example 141, N-(4-(4-Amino-7-(1-isobutyrylpiperidin-4-yl)pyrrolo[2,1-f][1,2,4]triazin-5-yl)phenyl)-1′-cyclopropyl-2′-methyl-4′-oxo-1′,4′-dihydro-[2,3′-bipyridine]-5′-carboxamide]: the values for the IC50 on c-Mer, at Tyro3 and at phosphor-Axl were not above 5 nM, more than 100 nM and not above 5 nM, respectively.

Take `Nc1ncnn2c(C3CCN(CCO)CC3)cc(-c3ccc(NC(=O)c4cccn(-c5ccc(F)cc5)c4=O)cc3F)c12` [Example 55]: the IC50 against c-Mer is not above 5 nM; against Tyro3, 5 to 10 nM; on phosphor-Axl, not above 5 nM.

For `Cc1c(-c2ncccn2)cc(C(=O)Nc2ccc(-c3cc(C4CCN(C)CC4)n4ncnc(N)c34)cc2)c(=O)n1-c1ccccc1` [Example 109], the IC50 was not above 5 nM against c-Mer, 5 to 10 nM on Tyro3 and not above 5 nM at phosphor-Axl.

`Cc1c(CC#N)cc(C(=O)Nc2ccc(-c3cc(C4CCN(C(=O)C(C)C)CC4)n4ncnc(N)c34)cc2)c(=O)n1-c1ccccn1` [Example 122, N-(4-(4-Amino-7-(1-isobutyrylpiperidin-4-yl)pyrrolo[1,2-f][1,2,4]triazin-5-yl)phenyl)-5-(cyanomethyl)-6-methyl-2-oxo-1-(pyridin-2-yl)-1,2-dihydropyridine-3-carboxamide]: the figures for the IC50 against c-Mer, at Tyro3 and at phosphor-Axl were not above 5 nM, more than 100 nM and not above 5 nM, respectively.

With `CC(=O)N1CCC(c2cc(-c3ccc(NC(=O)c4cccn(-c5ccc(F)cc5)c4=O)cc3)c3c(N)ncnn23)CC1` [Example 25, N-{4-[7-(1-Acetylpiperidin-4-yl)-4-aminopyrrolo[2,1-f][1,2,4]triazin-5-yl]phenyl}-1-(4-fluorophenyl)-2-oxo-1,2-dihydropyridine-3-carboxamide], the figures for the IC50 at c-Mer, at Tyro3 and at phosphor-Axl were not above 5 nM, 10 to 100 nM and not above 5 nM, respectively.
